# Key:
# SIRT2 [1] = target: T1, SIRT2 (Homo sapiens, UniProt Q8IXJ6); experiment: biochemical; format: biochemical; conditions: for %inhibition SIRT2, QPKKac: 100 µM inhibitor, QPKKac 50 µM, NI = no inhibition
# T1 sequence (Q8IXJ6 50-356): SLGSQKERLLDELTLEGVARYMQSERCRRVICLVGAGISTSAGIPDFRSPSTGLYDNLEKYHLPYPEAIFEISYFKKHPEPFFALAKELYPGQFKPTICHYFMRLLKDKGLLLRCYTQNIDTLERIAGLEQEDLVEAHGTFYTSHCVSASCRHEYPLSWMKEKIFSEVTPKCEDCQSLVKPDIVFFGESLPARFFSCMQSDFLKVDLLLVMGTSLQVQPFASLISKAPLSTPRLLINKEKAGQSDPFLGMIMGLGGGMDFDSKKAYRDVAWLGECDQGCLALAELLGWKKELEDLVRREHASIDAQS
# [2] = system: acetylated α-tubulin in MCF-7 cells; experiment: Immunofluorescence of acetylated α-tubulin in MCF-7 cells; format: cell-based, human; conditions: MCF-7, 6 h; 26 5 μM, 26-D 25 μM, TSA 5 μM
# SIRT2 [3] = target: T1, SIRT2; experiment: Continuous trypsin-coupled SIRT2 inhibition assay; format: biochemical; conditions: from dependence of kobs on inhibitor concentration
# SIRT1 = target: T2, SIRT1 (Homo sapiens, UniProt Q96EB6); experiment: End-point SIRT1 deacetylation inhibition assay; format: biochemical
# T2 sequence (Q96EB6 193-741): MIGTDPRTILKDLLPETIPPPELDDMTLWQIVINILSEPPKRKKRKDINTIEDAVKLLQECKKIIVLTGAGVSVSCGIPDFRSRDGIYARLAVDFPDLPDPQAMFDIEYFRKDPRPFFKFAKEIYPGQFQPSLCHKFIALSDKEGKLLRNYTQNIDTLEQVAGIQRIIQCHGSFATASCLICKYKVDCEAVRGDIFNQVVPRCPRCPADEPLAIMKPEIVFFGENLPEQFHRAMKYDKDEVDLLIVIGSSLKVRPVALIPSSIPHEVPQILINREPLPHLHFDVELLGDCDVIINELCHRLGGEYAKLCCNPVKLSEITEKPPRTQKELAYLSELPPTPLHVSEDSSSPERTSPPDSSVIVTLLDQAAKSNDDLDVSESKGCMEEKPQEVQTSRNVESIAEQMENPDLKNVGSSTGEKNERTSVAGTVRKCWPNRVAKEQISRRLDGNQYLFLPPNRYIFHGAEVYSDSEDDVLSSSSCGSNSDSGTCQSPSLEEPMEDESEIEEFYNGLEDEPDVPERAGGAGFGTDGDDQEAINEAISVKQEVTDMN
# SIRT3 = target: T3, SIRT3 (Homo sapiens, UniProt Q9NTG7); experiment: biochemical; format: biochemical
# T3 sequence (Q9NTG7 102-399): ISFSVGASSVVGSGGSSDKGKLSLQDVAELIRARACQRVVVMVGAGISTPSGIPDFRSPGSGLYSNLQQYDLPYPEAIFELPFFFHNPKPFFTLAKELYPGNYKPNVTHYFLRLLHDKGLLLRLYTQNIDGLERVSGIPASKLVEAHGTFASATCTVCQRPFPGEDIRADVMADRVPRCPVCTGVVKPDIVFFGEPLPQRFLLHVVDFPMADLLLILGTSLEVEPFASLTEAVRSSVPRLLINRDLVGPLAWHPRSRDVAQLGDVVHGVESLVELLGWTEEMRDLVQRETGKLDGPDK
# SIRT6 = SIRT6 (Homo sapiens, UniProt Q8N6T7); experiment: End-point SIRT6 inhibition assay; format: biochemical; conditions: 10 µM inhibitor; SIRT6 600 nM; ETDKmyr 50 µM as substrate; NI = no inhibition
# Chain of SIRT6 (Q8N6T7 whole entry): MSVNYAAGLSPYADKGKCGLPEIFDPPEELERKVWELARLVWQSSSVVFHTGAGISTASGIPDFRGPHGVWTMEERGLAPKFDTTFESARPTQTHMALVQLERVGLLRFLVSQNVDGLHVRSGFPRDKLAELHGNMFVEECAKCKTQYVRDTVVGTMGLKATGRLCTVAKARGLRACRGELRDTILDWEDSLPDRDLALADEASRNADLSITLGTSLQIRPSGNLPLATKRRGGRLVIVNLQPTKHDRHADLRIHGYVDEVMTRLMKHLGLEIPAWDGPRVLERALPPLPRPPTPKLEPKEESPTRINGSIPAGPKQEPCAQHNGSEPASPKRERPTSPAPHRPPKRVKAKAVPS
# [4] = Serum stability in human male serum; format: in vitro ADME; conditions: 37 °C, up to 24 h
smiles,measurement,setting,value
CCCCCCCCCCCCCC(=O)NNCCC[C@H](NC(=O)OCc1ccccc1)C(=O)N[C@@H](Cc1c[nH]c2ccccc12)C(=O)NC(C)C [Compound 4],"%inhibition SIRT2, QPKKac",SIRT2 [1],only limited inhibition
"CC(/C=C/C(=O)NO)=C\[C@@H](C)C(=O)c1ccc(N(C)C)cc1 [TSA, Trichostatin A]",acetylated α-tubulin level by immunofluorescence (in words),[2],hyperacetylation of α-tubulin throughout the entire cell
CCCCCCCCCCCCNC(=S)NCCCC[C@H](NS(C)(=O)=O)C(=O)N[C@@H](C)C(=O)N[C@@H](CCCNC(=N)N)C(N)=O [Compound 25],mechanism of slow-binding inhibition,SIRT2 [3],mechanism B
same,IC50,"SIRT2 [1]; IC50 SIRT2, QPKKac, given as class word, QPKKac 50 μM, NAD+ 500 μM, SIRT2 100 nM",< 100 nM
same,IC50,SIRT1,370 ± 70 nM
same,IC50,SIRT3,1900 ± 300 nM
same,%-inhibition SIRT6,SIRT6,did not inhibit
same,degradation in human serum (in words),[4],almost fully degraded in less than two hours
"CN(C)CCCCC(=O)Nc1ccc(NC(=S)NC(=O)c2ccc(C(C)(C)C)cc2)cc1 [Tenovin-6, reference compound]","%inhibition SIRT3, QPKKac","SIRT3; 100 µM inhibitor, QPKKac 50 µM, NI = no inhibition",<50% [100 μM]
same,degradation in human serum (in words),[4],rapidly degraded
CCCCCCCCCCCCNC(=O)CCCCC[C@H](NC(=O)OCc1ccccc1)C(=O)N[C@@H](Cc1c[nH]c2ccccc12)C(=O)NC(C)C [Compound 5],"%inhibition SIRT2, QPKKac",SIRT2 [1],only limited inhibition

# — publication PMC8341974 (RSC Chemical Biology, 2021)
